In patent publication US20250375427A1 (Biohaven Therapeutics Ltd., priority 2022, published 2025):

Assays:
[1] = system: 64SP stem like cells; conditions: combined with radiation; cited from earlier work
[2] = system: O^6-methylguanine-DNA-methyltransferase (MGMT) expression; conditions: combined with temozolomide (TMZ); cited from earlier work
[3] = Clinical adverse events observed with troriluzole; conditions: human, in vivo
From the text: In general, mild liver enzymes elevations attributed to troriluzole occur due to enzyme induction and are likely to resolve spontaneously within 12 weeks without any changes in the dose of troriluzole. However, the investigator should evaluate the subject, as appropriate.

[4] = system: glioma; conditions: cited from earlier work

In the case of `Nc1nc2ccc(OC(F)(F)F)cc2s1` [Riluzole, riluzole], the sensitivity to radiation [1] is listed as “enhances sensitivity to radiation” and the “effects of TMZ” value [2] is listed as “enhances the effects of TMZ via suppression of O^6-methylguanine-DNA-methyltransferase (MGMT) expression”.
For `CN(CC(=O)Nc1nc2ccc(OC(F)(F)F)cc2s1)C(=O)CNC(=O)CN` [Troriluzole, troriluzole], the “most commonly observed adverse events” value [3] is listed as “Mild increases in liver enzymes”, the “concentration of CD4+ T cells in TME” value ([4]; IF data, after troriluzole treatment) is listed as “increased concentration of CD4+ T cells in TME” and the “proliferation of tumor-infiltrating T cells” value ([4]; troriluzole treatment) is listed as “promoted proliferation of tumor-infiltrating T cells”. The survival ([4]; troriluzole treatment) was “induced a survival benefit” and the “survival and T regulatory cells in combination with anti-PD-1” value ([4]; with anti-PD-1 immunotherapy, glioma tumor microenvironment (TME)) was “synergized with anti-PD-1 immunotherapy to further improve survival and reduce T regulatory cells”.
